The results in this text go back to patent US8852584B2, “Bactericide having selectivity to cariogenic bacterium, and a method for sterilization of cariogenic bacterium” (Two Cells Co., Ltd., priority 2005, dated 2014).

In one data set the test system is S. mutans PMZ175. Put plainly: bacteriolytic effect, decrease in turbidity with time, various surfactants added to Aml. The format is cell-based, Streptococcus mutans. Conditions: Table 3. How it is done: (§1) The method for measuring the bacteriolytic effect adopted in the present invention is as follows.
(§2) The bacterial strain to be measured its bacteriolytic effect was cultivated overnight, it was washed by physiological saline then suspended into 0.1M phosphate buffer (pH 6.8) containing 0.1M NaCl and 0.1 mM CaCl2. The cell body was treated by ultrasonic generator to disperse the cell body. Thereafter, 500 μg/ml Aml solution dissolved into 30% ethyleneglycol-0.1M sodium phosphate buffer (pH 6.3) and 5 mg/ml surfactant dissolved into distilled water (40 μl) were added into a system consisting of 1 ml of bacterial suspension. 0.1M phosphate buffer solution and 0.1 mM calcium. It was incubated at 37° C., then the turbidity was measured with time, and the bacteriolytic effect was evaluated using the rate of decrease in turbidity as an index.
Using S. mutans PMZ175 (a cariogenic bacterium), the bacteriolytic effect was investigated using experimental systems in which various surfactants were added to Aml (FIG. 3, Table 3). Meanwhile, the food additives investigated in this experiment were glycyrrhizin (0.5%), saponin from quillaya (0.5%), S1670 (0.1%), S1570 (0.05%), P1670 (0.05%), saponin from soybean (0.05%), saponin from yucca (0.05%), and Triton X (0.05%).

In a further data set the test system is Streptcoccus mutans 403R. Put plainly: bacteriolytic effect, decrease in turbidity with time. It counts as cell-based, Streptococcus mutans. As to conditions: for percentage of turbidity (beginning = 100%): Table 1, Aml alone or Aml + 0.05% surfactant. How it is done:
as §1, §2
Using Streptcoccus mutans 403R (dental caries causing bacterium), the bacteriolytic effect was measured with time using an experimental system of Aml alone, and an experimental system of Aml added with P1670 or S1570 at the concentration of 0.05% (Table 1, FIG. 1). In table 1 and FIG. 1, the turbidity of the bacterial solution at the beginning of the experiment was indicated as 100%, and the bacteriolytic effect was represented by the percentage of turbidity at each time point. […] By the way, the control indicates a system in which only a cariogenic bacterium was cultivated.
Using Streptcoccus mutans 403R, the bacteriolytic effect was measured with time on systems in which P1670 or S1570 was added into Aml at various final concentrations (0.05%, 0.025%, 0.001%) (Table 2, FIG. 2).

Consider `CC1(C)[C@@H](O[C@H]2O[C@H](C(=O)O)[C@@H](O)[C@H](O)[C@H]2O[C@@H]2O[C@H](C(=O)O)[C@@H](O)[C@H](O)[C@H]2O)CC[C@]2(C)[C@H]3C(=O)C=C4[C@@H]5C[C@@](C)(C(=O)O)CC[C@]5(C)CC[C@@]4(C)[C@]3(C)CC[C@@H]12` [Glycyrrhizin, glycyrrhizin], for which the “percentage of turbidity (beginning = 100%)” value in the data set on S. mutans PMZ175 (Aml + 0.5% surfactant, Time 0) is 100.0%; in the data set on S. mutans PMZ175 (Aml + 0.5% surfactant, Time 0.25), 96.6%; with S. mutans PMZ175 (Aml + 0.5% surfactant, Time 0.5), 93.6%; in the data set on S. mutans PMZ175 (Aml + 0.5% surfactant, Time 1), 89.0%; in the data set on S. mutans PMZ175 (Aml + 0.5% surfactant, Time 1.5), 81.3%; in the data set with S. mutans PMZ175 (Aml + 0.5% surfactant, Time 2.5), 83.7%. Also, the “percentage of turbidity (beginning = 100%)” value in the data set on S. mutans PMZ175 (Aml + 0.5% surfactant, Time 3) is 80.3%; in the data set on S. mutans PMZ175 (Aml + 0.5% surfactant, Time 3.5), 82.3%; in the data set with S. mutans PMZ175 (Aml + 0.5% surfactant, Time 4) it was 77.4%.
`CC(C)(C)CC(C)(C)c1ccc(OCCO)cc1` [Triton, Triton X]: the “percentage of turbidity (beginning = 100%)” value in the data set on S. mutans PMZ175 (Aml + 0.05% surfactant, Time 0) is 100.0%; in the data set with S. mutans PMZ175 (Aml + 0.05% surfactant, Time 0.25) it was 93.8%; in the data set on S. mutans PMZ175 (Aml + 0.05% surfactant, Time 0.5), 68.6%; in the data set on S. mutans PMZ175 (Aml + 0.05% surfactant, Time 1) it was 10.3%; in the data set with S. mutans PMZ175 (Aml + 0.05% surfactant, Time 1.5) it was −3.4%; in the data set on S. mutans PMZ175 (Aml + 0.05% surfactant, Time 2.5), −6.6%. Besides, the “percentage of turbidity (beginning = 100%)” value in the data set with S. mutans PMZ175 (Aml + 0.05% surfactant, Time 3) is given as −7.1%; with S. mutans PMZ175 (Aml + 0.05% surfactant, Time 3.5) it was −7.7%; with S. mutans PMZ175 (Aml + 0.05% surfactant, Time 4), −8.8%.

B1: automutanolysin (protein)
chain: MKSKTYLMIPLALTLFMAANKISADEQNQSLSASEVISSDATSVSELPATTAQISQEVRNNGQDSTIQLQQTQEQSDPITSTSETTVSSMKAATNGSPAKANETETVPSQASTASSVQTPDQILTVPSVKAETTSTADQLQSTSSAPLDQQTDAKRLSNKMTPASSVQARSSLTQDKQVQAQEVTSAVVEEKGIKLQYNGQIARNTKIQFAVWSARNDQDDLQWYTANNMGAAYAEFKNHREYGTYYVHTYANQNGKMIGLNATTLTIAQPQVQTNIQRKSATNFELTVSNVPNTISGIMVPVWSDQNGQDDIKWYNARKADDGSYKVLIDTKNHKNDLGHYEAHIYGYSTVTQSQIGLAVSSGFDRNDTRPNARISVANYDQNKTTFDVVVEGSSDTKTVSAVNIAVWSEDKGQDDLKWYSPKIVDNKATVTINIANHSNTSDKYNVHVYTDYTDGTHSGTILGAYQINKPLEKNTVSADLTSDGIALKLDSNTVTDYTKVRFAVWSDQNGQDDLKWYSANSDGTATAAYSNHSGYGLYHIHTYIIKDGKMVGLNGKTITINQPSAKVDIAKESDALYKVTVSNLPAYISSVVIPVWTDKNNQDDIQWIPATKQGDGTYAAQIQLADHNGETGHYNVHVYGQSKFDNKAVGLAATDGFNVAETRNAVIAASNYNASAGTIDMIVKQEAGGKAIKEVRIAAWSEADQSNLHWYVSSTIIDGKVTVTINEKNHQYIKGNYNIHVYVDYTDGTSSGTNIGNYSLNADKPAVALPSYFIDISSHNGIISVAEFNSLKQQGIQGVVVKLTEGTSYINPYASSQIANARAAGIKVSAYHYAHYTSAAGAQEEARYFANAARSFGLEASTVMVNDMEESSMVNNINNNVQAWQDEMRRQGYSNLIHYTMASWLDIRGGQVDTARFGINNFWVAHYAKGYTYMTQEEAKSLNYYANAAAWQYTSVSSKLSHALDENIDYTGRFTQQ
modifications: Streptococcus mutans
notes: bacterial cell wall lytic enzyme from Streptococcus mutans specific to cariogenic bacterium
On to B1, for which the “percentage of turbidity (beginning = 100%)” value in the data set with Streptcoccus mutans 403R (Time 0) amounted to 100.0%; with Streptcoccus mutans 403R (Time 0.25), 93.3%; in the data set with Streptcoccus mutans 403R (Time 0.5), 81.5%; in the data set with Streptcoccus mutans 403R (Time 1), 62.6%; with Streptcoccus mutans 403R (Time 1.5), 50.8%; in the data set on Streptcoccus mutans 403R (Time 2), 42.2%. For the same molecule, the “percentage of turbidity (beginning = 100%)” value with Streptcoccus mutans 403R (Time 4) worked out at 24.6%. Moreover, the “time required for the bacteriolysis of 50% of living bacterium (ED50)” value with Streptcoccus mutans 403R (summary, Aml alone) stood at 1.5 h.
